Reference: ChEMBL document CHEMBL1177677, “Tryptamine-derived alkaloids from Annonaceae exerting neurotrophin-like properties on primary dopaminergic neurons” (Bioorg Med Chem, 2010)

Tests used:
Neuron [1] = experiment: Neuroprotective activity against degeneration of rat DA neurons assessed as […] immunopositive neurons at 10 nM by immunofluorescence staining relative to control; format: functional
Neuron [2] = experiment: Neuritogenic effect in rat DA neurons assessed as total neurite length per […] immunopositive neurons at 10 nM relative to control; format: functional
[3] = Antioxidant activity assessed as ABTS radical scavenging activity; format: functional
Neuron [4] = experiment: Antioxidant activity in mesecephalic neuron assessed as ROS production at 10 nM by dihydrorhodamine-123 incorporation assay relative to control; format: functional
Brain = experiment: Biodistribution in Swiss mouse brain at 150 mg/kg, iv; format: ADME, organism-based; design: dose 150 mg/kg, route intravenous; conditions: in vivo
Mus musculus = species: Mus musculus; experiment: Toxicity in Swiss mouse assessed as change in body weight, food intake; format: organism-based; conditions: in vivo
Neuron [5] = experiment: Neuroprotective activity against degeneration of rat DA neurons assessed as […] immunopositive neurons immunofluorescence staining at 200 nM relative to control; format: functional
Neuron [6] = experiment: Neuritogenic effect in rat DA neurons assessed as total neurite length per […] immunopositive neurons at 200 nM relative to control; format: functional
Neuron [7] = experiment: Antioxidant activity in mesecephalic neuron assessed as ROS production at 10 uM by dihydrorhodamine-123 incorporation assay relative to control; format: functional

Row | Compound | Activity (Neuron [1]) [%] | Activity (Neuron [2]) [%] | IC50 [3] [µM] | Activity (Neuron [4]) [%] | other results
1 | CCCCCCCCCCCCCCC(=O)NCCc1c[nH]c2ccccc12 | 99.3 | 139 | – | – | –
2 | CCCCCCCCCCCCCNCCc1c[nH]c2ccccc12 | 92.8 | 121.2 | 810 | – | –
3 | O=C(CCCCCCCCCCCCCCO)NCCc1c[nH]c2ccccc12 | 108 | 159.3 | > 1000 | 60.9 | –
4 | CCCCC/C=C\C/C=C\CCCCCCCC(=O)NCCc1c[nH]c2ccccc12 | 111.4 | 154 | – | 56.5 | –
5 | CCCCCCCCCCCCCCCCC(=O)NCCc1c[nH]c2ccccc12 | 106 | 136 | – | – | –
6 | CCCCCCCCCCCCCCCCCCCCCCCNCCc1c[nH]c2ccccc12 | 129.6 | 141.2 | 670 | – | –
7 | CCCCC/C=C\C/C=C\CCCCCCCCNCCc1c[nH]c2ccccc12 | 137.5 | 156.7 | 340 | 44 | –
8 | CCCCCCCCCCCCCCCNCCc1c[nH]c2ccccc12 | 106 | 132.7 | – | – | –
9 | CCCCCCCCCCCCCCCCNCCc1c[nH]c2ccccc12 | 131.9 | 197 | 620 | 47.8 | Drug uptake (Brain): 21.8 ng/mL; Activity (Mus musculus): Non-toxic
10 | CCCCCCCCCCCCCCCCCCCCNCCc1c[nH]c2ccccc12 | 128.9 | 132.6 | – | – | –
11 | CCCCCCCCCCCCCCCCCNCCc1c[nH]c2ccccc12 | 110.6 | 139 | – | – | –
12 | CCCCCCCCCCCCCCCCCCNCCc1c[nH]c2ccccc12 | 129.9 | 157.3 | – | – | –
13 | OCCCCCCCCCCCCCCCNCCc1c[nH]c2ccccc12 | 129.4 | 160.8 | 730 | 43.7 | –
14 | CCCCCCCCCCCCC(=O)NCCc1c[nH]c2ccccc12 | 98.5 | 126.2 | > 1000 | – | –
15 | CCCCCCCCCCCCCCCCCCCCCCC(=O)NCCc1c[nH]c2ccccc12 | 114 | 145.4 | – | – | –
16 | CCCCCCCCCCCCCCCC(=O)NCCc1c[nH]c2ccccc12 | 121.3 | 168.6 | > 1000 | 55.9 | –
17 | CCCCCCCCCCCCCCCCCC(=O)NCCc1c[nH]c2ccccc12 | 110 | 149.9 | – | – | –
18 | CCCCCCCCCCCCCCCCCCCC(=O)NCCc1c[nH]c2ccccc12 | 121.8 | 147.4 | – | – | –
19 | CCCC(=O)Nc1ncnc2c1ncn2[C@@H]1O[C@@H]2COP(=O)(O)O[C@H]2[C@H]1OC(=O)CCC [BUCLADESINE] | – | – | – | – | Activity (Neuron [5]): 149.9%; Activity (Neuron [6]): 333.1%
20 | Cc1c(C)c2c(c(C)c1O)CCC(C)(C(=O)O)O2 (stereo unspecified) [TROLOX] | – | – | 550 | – | Activity (Neuron [7]): 44%
